Experimental data reported in PMC7031773, “Molecular Mechanisms Responsible for Pharmacological Effects of Genipin on Mitochondrial Proteins” (Biophysical Journal, 2019).

Key:
Format in all cases: biochemical
[1] = biological target: T1, mitochondrial uncoupling protein 1 (UCP1) (Mus musculus, UniProt P12242); assay: planar lipid bilayer conductance, competition of […] ATP with […] genipin
T1 construct: recombinant mouse UCP1 from E. coli inclusion bodies, reconstituted in lipid bilayers
T1 sequence (P12242 1-307): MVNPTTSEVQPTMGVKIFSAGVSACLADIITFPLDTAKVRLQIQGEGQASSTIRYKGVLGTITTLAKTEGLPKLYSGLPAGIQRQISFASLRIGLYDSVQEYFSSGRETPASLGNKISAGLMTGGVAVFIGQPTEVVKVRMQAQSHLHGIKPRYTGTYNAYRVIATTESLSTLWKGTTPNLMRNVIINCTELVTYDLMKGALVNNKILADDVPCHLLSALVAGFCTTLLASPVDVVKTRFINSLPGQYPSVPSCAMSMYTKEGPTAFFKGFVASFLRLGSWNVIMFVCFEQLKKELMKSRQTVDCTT
From the text: The first bar is the inhibition after the addition of ATP

[2] = biological target: T2, mitochondrial uncoupling protein 2 (UCP2) (Mus musculus, UniProt P70406); assay: planar lipid bilayer conductance with reconstituted UCP2
T2 construct: recombinant mouse UCP2 from E. coli inclusion bodies, reconstituted in lipid bilayers
T2 sequence (P70406 1-309): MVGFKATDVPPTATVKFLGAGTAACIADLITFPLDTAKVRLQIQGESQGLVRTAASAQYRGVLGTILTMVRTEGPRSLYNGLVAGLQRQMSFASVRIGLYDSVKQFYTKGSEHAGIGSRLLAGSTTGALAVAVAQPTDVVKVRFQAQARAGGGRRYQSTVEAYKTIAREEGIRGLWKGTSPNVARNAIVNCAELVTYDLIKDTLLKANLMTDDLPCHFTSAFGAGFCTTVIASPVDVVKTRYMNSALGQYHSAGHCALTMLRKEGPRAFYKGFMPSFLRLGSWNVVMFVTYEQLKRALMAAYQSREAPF

[3] = biological target: T1, mitochondrial uncoupling protein 1 (UCP1); assay: planar lipid bilayer conductance with reconstituted UCP1; LC-MS/MS of covalent adducts; arginine mutants; competition with ATP
[4] = biological target: T3, mitochondrial uncoupling protein 3 (UCP3) (Mus musculus, UniProt P56501); assay: planar lipid bilayer conductance with reconstituted UCP3
T3 construct: recombinant mouse UCP3 from E. coli inclusion bodies, reconstituted in lipid bilayers
T3 sequence (P56501 1-308): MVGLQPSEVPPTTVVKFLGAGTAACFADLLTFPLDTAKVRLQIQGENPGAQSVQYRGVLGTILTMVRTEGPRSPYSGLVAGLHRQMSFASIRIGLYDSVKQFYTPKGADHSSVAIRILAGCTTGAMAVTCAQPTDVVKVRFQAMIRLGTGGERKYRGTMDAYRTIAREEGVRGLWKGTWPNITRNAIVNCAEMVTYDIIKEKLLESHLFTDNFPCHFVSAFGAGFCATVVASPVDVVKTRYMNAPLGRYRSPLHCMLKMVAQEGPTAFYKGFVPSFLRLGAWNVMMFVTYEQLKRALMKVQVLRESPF

[5] = biological target: T4, mitochondrial complex III (CIII) (Bos taurus, UniProt P00157); assay: cytochrome c reduction by isolated complex III, […] genipin
T4 construct: gene MT-CYB; complex III isolated from bovine heart

[6] = biological target: T1, mitochondrial uncoupling protein 1 (UCP1); assay: planar lipid bilayer conductance with reconstituted UCP1

In the case of `Nc1ncnc2c1ncn2[C@@H]1O[C@H](COP(=O)(O)OP(=O)(O)OP(=O)(O)O)[C@@H](O)[C@H]1O` [ATP], the “planar lipid bilayer conductance, competition of 3 mM ATP with 50 μM genipin” value [1] is reported as “Competitive inhibition of UCP1 with genipin (GNP) and ATP. The first bar is the inhibition after the addition of ATP”.
`COC(=O)C1=CO[C@@H](O)[C@@H]2C(CO)=CC[C@H]12` [GNP, genipin] was tested, and the IC50 [2] was 94 ± 24 µM, the IC50 [3] was 133 ± 12 µM and the IC50 [4] was 41 ± 12 µM. The activity at 50 µM [5] was 63 ± 7%.
Compound `COC(=O)C1=CO[C@@H](O[C@@H]2O[C@H](CO)[C@@H](O)[C@H](O)[C@H]2O)[C@@H]2C(CO)=CC[C@H]12` [geniposide] has an EC50 [6] of 693 ± 90 µM.
